PubChem BioAssay AID1259407 (Chemical Carcinogenesis Research Information System (CCRIS), 2018)
Activity calls are given as the source filed them. How the calls were made is not given here.

Tested on: CCRIS mutagenicity, Ames/micronucleus/aberration tests
Assay: CCRIS mutagenicity studies

For `COc1cccc2c1cc([N+](=O)[O-])c1c(C(=O)O)cc3c(c12)OCO3`, the mutagenic call (End Point: IN VITRO CHROMOSOMAL ABERRATIONS, Test System: CHO (WBL) CELLS, Metabolic Activation: NONE) was “active; positive”, the mutagenic call (End Point: IN VITRO CHROMOSOMAL ABERRATIONS, Test System: CHO (WBL) CELLS, Metabolic Activation: RAT, LIVER, S-9, AROCLOR 1254) was “active; positive” and the mutagenic call (End Point: IN VITRO CHROMOSOMAL ABERRATIONS, Test System: CHO CELLS, Metabolic Activation: NONE) was “active; positive”. For the same molecule, the mutagenic call (End Point: IN VITRO CHROMOSOMAL ABERRATIONS, Test System: CHO CELLS, Metabolic Activation: S-9) was “active; positive”, the mutagenic call (End Point: IN VITRO MICRONUCLEUS, Test System: CHO (WBL) CELLS, Metabolic Activation: RAT, LIVER, S-9, AROCLOR 1254) was “active; positive” and the mutagenic call (End Point: IN VITRO MICRONUCLEUS, Test System: CHO CELLS, Metabolic Activation: S-9) was “active; positive”. The mutagenic call (End Point: In vitro micronucleus, Test System: Human hepatoma (HepG2) cells, Metabolic Activation: None) was “active; positive”, the mutagenic call (Test System: AMES SALMONELLA TYPHIMURIUM, Strain/Indicator: D3052, Metabolic Activation: NONE, Method: STANDARD PLATE) was “inactive; negative” and the mutagenic call (Test System: AMES SALMONELLA TYPHIMURIUM, Strain/Indicator: D3052, Metabolic Activation: RAT, LIVER, S-9, PHENOBARBITAL, Method: STANDARD PLATE) was “inactive; negative”. The mutagenic call (Test System: AMES SALMONELLA TYPHIMURIUM, Strain/Indicator: G46, Metabolic Activation: NONE, Method: STANDARD PLATE) was “inactive; negative”, the mutagenic call (Test System: AMES SALMONELLA TYPHIMURIUM, Strain/Indicator: G46, Metabolic Activation: RAT, LIVER, S-9, PHENOBARBITAL, Method: STANDARD PLATE) was “inactive; negative” and the mutagenic call (Test System: AMES SALMONELLA TYPHIMURIUM, Strain/Indicator: TA98(NR), Metabolic Activation: NONE, Method: STANDARD PLATE) was “inactive; negative”. The mutagenic call (Test System: AMES SALMONELLA TYPHIMURIUM, Strain/Indicator: TA98, Metabolic Activation: NONE) was “inactive; negative”, the mutagenic call (Test System: AMES SALMONELLA TYPHIMURIUM, Strain/Indicator: TA98, Metabolic Activation: NONE, Method: STANDARD PLATE) was “inactive; negative” and the mutagenic call (Test System: AMES SALMONELLA TYPHIMURIUM, Strain/Indicator: TA98, Metabolic Activation: RAT, LIVER, S-9, AROCLOR 1254, Method: STANDARD PLATE) was “active; positive”. For the same molecule, the mutagenic call (Test System: AMES SALMONELLA TYPHIMURIUM, Strain/Indicator: TA98, Metabolic Activation: RAT, LIVER, S-9, CLOPHEN A50) was “inactive; negative”, the mutagenic call (Test System: AMES SALMONELLA TYPHIMURIUM, Strain/Indicator: TA98, Metabolic Activation: RAT, LIVER, S-9, PHENOBARBITAL, Method: STANDARD PLATE) was “active; positive” and the mutagenic call (Test System: AMES SALMONELLA TYPHIMURIUM, Strain/Indicator: TA100(NR), Metabolic Activation: NONE, Method: STANDARD PLATE) was “inactive; negative”. The mutagenic call (Test System: AMES SALMONELLA TYPHIMURIUM, Strain/Indicator: TA100(NR), Metabolic Activation: S-9, Method: STANDARD PLATE) was “inactive; negative”, the mutagenic call (Test System: AMES SALMONELLA TYPHIMURIUM, Strain/Indicator: TA100, Metabolic Activation: NONE) was “active; positive” and the mutagenic call (Test System: AMES SALMONELLA TYPHIMURIUM, Strain/Indicator: TA100, Metabolic Activation: NONE, Method: STANDARD PLATE) was “inactive; negative”. For the same molecule, the mutagenic call (Test System: AMES SALMONELLA TYPHIMURIUM, Strain/Indicator: TA100, Metabolic Activation: RAT, LIVER, S-9, AROCLOR 1254, Method: STANDARD PLATE) was “active; positive”, the mutagenic call (Test System: AMES SALMONELLA TYPHIMURIUM, Strain/Indicator: TA100, Metabolic Activation: RAT, LIVER, S-9, CLOPHEN A50) was “active; positive” and the mutagenic call (Test System: AMES SALMONELLA TYPHIMURIUM, Strain/Indicator: TA100, Metabolic Activation: RAT, LIVER, S-9, PHENOBARBITAL, Method: STANDARD PLATE) was “active; positive”. For the same molecule, the mutagenic call (Test System: AMES SALMONELLA TYPHIMURIUM, Strain/Indicator: TA100, Metabolic Activation: S-9, Method: STANDARD PLATE) was “active; positive”, the mutagenic call (Test System: AMES SALMONELLA TYPHIMURIUM, Strain/Indicator: TA102, Metabolic Activation: NONE, Method: STANDARD PLATE) was “active; positive” and the mutagenic call (Test System: AMES SALMONELLA TYPHIMURIUM, Strain/Indicator: TA1535, Metabolic Activation: NONE) was “inactive; negative”. The mutagenic call (Test System: AMES SALMONELLA TYPHIMURIUM, Strain/Indicator: TA1535, Metabolic Activation: NONE, Method: STANDARD PLATE) was “active; positive”, the mutagenic call (Test System: AMES SALMONELLA TYPHIMURIUM, Strain/Indicator: TA1535, Metabolic Activation: RAT, LIVER, S-9, CLOPHEN A50) was “inactive; negative” and the mutagenic call (Test System: AMES SALMONELLA TYPHIMURIUM, Strain/Indicator: TA1535, Metabolic Activation: RAT, LIVER, S-9, PHENOBARBITAL, Method: STANDARD PLATE) was “active; positive”. The mutagenic call (Test System: AMES SALMONELLA TYPHIMURIUM, Strain/Indicator: TA1537, Metabolic Activation: NONE) was “active; positive”, the mutagenic call (Test System: AMES SALMONELLA TYPHIMURIUM, Strain/Indicator: TA1537, Metabolic Activation: NONE, Method: STANDARD PLATE) was “active; positive” and the mutagenic call (Test System: AMES SALMONELLA TYPHIMURIUM, Strain/Indicator: TA1537, Metabolic Activation: RAT, LIVER, S-9, CLOPHEN A50) was “active; positive”. For the same molecule, the mutagenic call (Test System: AMES SALMONELLA TYPHIMURIUM, Strain/Indicator: TA1537, Metabolic Activation: S-9, Method: STANDARD PLATE) was “active; positive”, the mutagenic call (Test System: AMES SALMONELLA TYPHIMURIUM, Strain/Indicator: TA1538, Metabolic Activation: NONE) was “inactive; negative” and the mutagenic call (Test System: AMES SALMONELLA TYPHIMURIUM, Strain/Indicator: TA1538, Metabolic Activation: RAT, LIVER, S-9, CLOPHEN A50) was “inactive; negative”. For the same molecule, the mutagenic call (Test System: AMES SALMONELLA TYPHIMURIUM, Strain/Indicator: TA1978, Metabolic Activation: NONE, Method: STANDARD PLATE) was “inactive; negative”, the mutagenic call (Test System: AMES SALMONELLA TYPHIMURIUM, Strain/Indicator: TA1978, Metabolic Activation: RAT, LIVER, S-9, PHENOBARBITAL, Method: STANDARD PLATE) was “inactive; negative” and the mutagenic call (Test System: AMES SALMONELLA TYPHIMURIUM, Strain/Indicator: TM677/8-AZAGUANINE, Metabolic Activation: NONE, Method: SUSPENSION/PLATE) was “active; positive”. For the same molecule, the mutagenic call (Test System: AMES SALMONELLA TYPHIMURIUM, Strain/Indicator: YG1020, Metabolic Activation: NONE, Method: STANDARD PLATE) was “active; positive”, the mutagenic call (Test System: AMES SALMONELLA TYPHIMURIUM, Strain/Indicator: YG1021, Metabolic Activation: NONE, Method: STANDARD PLATE) was “inactive; negative” and the mutagenic call (Test System: AMES SALMONELLA TYPHIMURIUM, Strain/Indicator: YG1024, Metabolic Activation: NONE, Method: STANDARD PLATE) was “active; positive”. The mutagenic call (Test System: AMES SALMONELLA TYPHIMURIUM, Strain/Indicator: YG1025, Metabolic Activation: NONE, Method: STANDARD PLATE) was “active; positive”, the mutagenic call (Test System: AMES SALMONELLA TYPHIMURIUM, Strain/Indicator: YG1029, Metabolic Activation: NONE, Method: STANDARD PLATE) was “active; positive” and the mutagenic call (Test System: CHINESE HAMSTER OVARY, Strain/Indicator: CHO-K1-BH4 (HGPRT), Metabolic Activation: NONE) was “active; positive”. The mutagenic call (Test System: MOUSE LYMPHOMA, Strain/Indicator: L5178Y TK+/TK-, Metabolic Activation: NONE) was “active; positive” and the mutagenic call (Test System: MOUSE LYMPHOMA, Strain/Indicator: L5178Y TK+/TK-, Metabolic Activation: RAT, LIVER, S-9, AROCLOR 1254) was “active; positive”.
